According to patent US9913857B2, “Composition and methods of screening” (OPTIBIOTIX LIMITED, priority 2013, dated 2018):

Key:
Total count = test: Anaerobic cultures, gut bacterial groups by fluorescent in situ hybridisation: total count; type: cell-based; design: Total count 24: unit not given here; conditions: for Total count 24: 24 hours, anaerobic culture, inoculum 8.84; for Total count 24 hr % change: 24 hr vs inoculum
Experimental: (§1) In these experiments, anaerobic cultures were tested to evaluate the in vitro utilisation of a novel Lactobacillus reuteri galactooligosaccharide by monitoring the populations of gut bacterial groups at 24 hours using fluorescent in situ hybridisation, and short-chain fatty acid […]. Fructooligosaccharides (FOS), melibiose and raffinose were used as reference carbohydrates.

Eubacteria = test: Anaerobic cultures, gut bacterial groups by fluorescent in situ hybridisation: Eubacteria; type: cell-based; design: Eubacteria 24: unit not given here; conditions: for Eubacteria 24: 24 hours, anaerobic culture, inoculum 8.06; for Eubacteria 24 hr % change: 24 hr vs inoculum
Experimental: as §1

Bacteroides = test: Anaerobic cultures, gut bacterial groups by fluorescent in situ hybridisation: Bacteroides; type: cell-based; design: Bacteroides 24: unit not given here; conditions: for Bacteroides 24: 24 hours, anaerobic culture, inoculum 7.98; for Bacteroides 24 hr % change: 24 hr vs inoculum
Experimental: as §1

Clostridia = test: Anaerobic cultures, gut bacterial groups by fluorescent in situ hybridisation: Clostridia; type: cell-based; design: Clostridia 24: unit not given here; conditions: for Clostridia 24: 24 hours, anaerobic culture, inoculum 7.55; for Clostridia 24 hr % change: 24 hr vs inoculum
Experimental: as §1

Bifidobacteria = test: Anaerobic cultures, gut bacterial groups by fluorescent in situ hybridisation: Bifidobacteria; type: cell-based; design: Bifidobacteria 24: unit not given here; conditions: for Bifidobacteria 24: 24 hours, anaerobic culture, inoculum 6.85; for Bifidobacteria 24 hr % change: 24 hr vs inoculum
Experimental: as §1

Lactobacilli = test: Anaerobic cultures, gut bacterial groups by fluorescent in situ hybridisation: Lactobacilli; type: cell-based; design: Lactobacilli 24: unit not given here; conditions: for Lactobacilli 24: 24 hours, anaerobic culture, inoculum 7.15; for Lactobacilli 24 hr % change: 24 hr vs inoculum
Experimental: as §1

E. coli = test: Anaerobic cultures, gut bacterial groups by fluorescent in situ hybridisation: E. coli; type: cell-based; design: E. coli 24: unit not given here; conditions: for E. coli 24: 24 hours, anaerobic culture, inoculum 8.14; for E. coli 24 hr % change: 24 hr vs inoculum
Experimental: as §1

Lactobacilli strains = test: Bacterial growth curve with lactose as growth medium; type: cell-based, Lactobacillus; conditions: around 13 hours, from approximately 6.5, L. plantarum, L. casei, L. salivarius, L. rhanmosus, L. delbrueckii
Experimental: Bacterial growth curve determination was undertaken by sampling cultures at 0 h, 3 h, 5 h, 8 and 24 h intervals using a 100 μL of dilution series of culture in 900 μL PBS. 20 μL of each series was spread onto a jar and with a negative control and growth assessed.
Bacterial count of several of the strains was assessed by using 0.1% lactose as the growth medium.
Bacterial count of several of the strains was assessed by using 5% lactose as the growth medium. FIGS. 2A-2G show the bacterial count over time using 5% lactose as a growth medium for L. plantarum, L. casei, L. salivarius, L. delbrueckii, L. rhanmosus, L. acidophilus and L. helveticus.

SMILES | Total count 24 (Total count) | Total count 24 hr % change (Total count) [%] | Eubacteria 24 (Eubacteria) | Eubacteria 24 hr % change (Eubacteria) [%] | Bacteroides 24 (Bacteroides) | Bacteroides 24 hr % change (Bacteroides) [%] | Clostridia 24 (Clostridia) | Clostridia 24 hr % change (Clostridia) [%] | Bifidobacteria 24 (Bifidobacteria) | Bifidobacteria 24 hr % change (Bifidobacteria) [%] | Lactobacilli 24 (Lactobacilli) | Lactobacilli 24 hr % change (Lactobacilli) [%] | E. coli 24 (E. coli) | E. coli 24 hr % change (E. coli) [%] | bacterial count (Lactobacilli strains; 0.1% lactose as growth medium, L. fermentum) | bacterial count (Lactobacilli strains; 5% lactose as growth medium, L. acidophilus, L. helveticus)
OC[C@H]1O[C@H](OCC2O[C@@H](O)[C@H](O)[C@@H](O)[C@@H]2O)[C@H](O)[C@@H](O)[C@H]1O (stereo partly drawn) [Melibiose, melibiose] | 9.14 | 103 | 7.84 | 97 | 7.9 | 99 | 7.65 | 101 | 7.33 | 107 | 7.43 | 104 | 7.66 | 94 |  | 
OC[C@H]1O[C@@H](O[C@H]2[C@H](O)[C@@H](O)C(O)O[C@@H]2CO)[C@H](O)[C@@H](O)[C@H]1O (stereo partly drawn) [lactose] |  |  |  |  |  |  |  |  |  |  |  |  |  |  | over 9.5 log 10 CFU/ml | over 9.5 log 10 CFU/ml
OC[C@H]1O[C@H](OC[C@H]2O[C@H](O[C@]3(CO)O[C@H](CO)[C@@H](O)[C@@H]3O)[C@H](O)[C@@H](O)[C@@H]2O)[C@H](O)[C@@H](O)[C@H]1O [Raffinose, raffinose] | 9.19 | 104 | 8.69 | 108 | 8.08 | 101 | 7.81 | 103 | 7.69 | 112 | 7.45 | 104 | 8.03 | 99 |  | 
